The values below come from patent US11358965B2, “EGFR dimer disruptors and use of the same” (THE REGENTS OF THE UNIVERSITY OF MICHIGAN, priority 2018, dated 2022).

What all share (format): cell-based
One series relates to UM1 cells. Nature of the series: Clonogenic IC50, UM1.
For another series, the system named is RKO cells. Nature of the series: Clonogenic IC50, RKO. The following applies: Homo sapiens.
A further series concerns cells. In words: Cell Titer Blue % cell viable (24 hrs). To be noted: for viability at 30 µM / viability at 15 µM / viability at 7.5 µM: 24 h; for viability at 15 µM: Conc 15 μM; for viability at 7.5 µM: Conc 7.5 μM. As for the experimental part: The viability of cells upon treatment was assessed by CellTiter-Blue® reagent following the manufacturer's protocol in RKO, UM10B, UM1, MCR5, and UMCC92 cells. Briefly, 10,000 cells were plated in 96-well plate in quadruplets. One day after seeding, cells were treated with a range of concentrations (0.1 to 30 micromolar). […] Only the viable cells convert the redox dye (reszurin) into a fluorescent product (resofurin). The emission of fluorescence (excitation 560 nm) was measured at […]. The IC50 value was calculated as the mean concentration of compounds required to inhibit cell proliferation as measured by the fluorescence at […] by 50 percent compared to the vehicle-treated controls.
(In general: Resazurin is reduced to fluorescent resorufin, in cell work by metabolically active cells.)

Another series relates to MCR5 cells. In words: Clonogenic IC50, MCR5. As for the experimental part:
It was determined if the response to Compound 8C correlates with inhibition of EGF-induced dimerization and degradation of EGFR. For this, PC9-AZR cells were treated for 1 hour with 1 μM Compound 8C and an additional 30 minutes with EGF (30 ng/ml) and 30 minutes with disuccinimidyl suberate (DSS, 150 μM) to cross-link interacting proteins. Lysates were prepared and immunoblotted with anti-EGFR antibodies.
The viability of cells upon treatment was assessed by CellTiter-Blue® reagent following the manufacturer's protocol in RKO, UM10B, UM1, MCR5, and UMCC92 cells. Briefly, 10,000 cells were plated in 96-well plate in quadruplets. One day after seeding, cells were treated with a range of concentrations (0.1 to 30 micromolar). 3-days post-treatment, cells were incubated with the CellTiter-Blue® reagent for 4 hr. Only the viable cells convert the redox dye (reszurin) into a fluorescent product (resofurin). The emission of fluorescence (excitation 560 nm) was measured at […]. The IC50 value was calculated as the mean concentration of compounds required to inhibit cell proliferation as measured by the fluorescence at […] by 50 percent compared to the vehicle-treated controls.

Another series concerns UM10B cells. Nature of the series: Clonogenic IC50, UM10B.
The test system of another series is UMCC92 cells. Nature of the series: Clonogenic IC50, UMCC92.

Where a name gives a salt, the structure may show the parent alone.

The IC50 is the point on the concentration scale where inhibition reaches its midpoint. Higher therefore signals lower potency. What is called viability is a read-out of living cells in per cent, often relative to untreated cells.

Consider `COc1ccc(C2=NC3(CCN(C(=O)OC(C)(C)C)CC3)N(CC(=O)Nc3ccc(OC)c(Cl)c3)C2=O)cc1` [Compound 3, tert-Butyl 4-(2-((3-chloro-4-methoxyphenyl)amino)-2-oxoethyl)-2-(4-methoxyphenyl)-3-oxo-1,4,8-triazaspiro[4.5]dec-1-ene-8-carboxylate], for which the IC50 in the series on UM1 cells came out at 7.8 µM; with RKO cells it was 9.8 µM. In addition, in the series on cells (Conc 30 μM), the viability at 30 µM was 70%.

Take `COc1ccc(C2=NC3(CCNCC3)N(CC(=O)Nc3ccc(OC)c(Cl)c3)C2=O)cc1` [Compound 4, N-(3-chloro-4-methoxyphenyl)-2-(3-(4-methoxyphenyl)-2-oxo-1,4,8-triazaspiro[4.5]dec-3-en-1-yl)acetamide hydrochloride]: the values for the IC50 in the series with UM1 cells and in the series on RKO cells were 1 µM and 7.6 µM, respectively. In the series on cells, the viability at 15 µM turned out to be 61%.

`COc1ccc(NC(=O)CSC2=NC3(CCN(C)CC3)N=C2c2ccc(Br)cc2)cn1` [Compound 8A, 2-((3-(4-bromophenyl)-8-methyl-1,4,8-triazaspiro[4.5]deca-1,3-dien-2-yl)thio)-N-(6-methoxypyridin-3-yl)acetamide]: the IC50 in the series with UM1 cells stood at 1 µM; in the series on RKO cells it was 8.8 µM. The viability at 30 µM in the series on cells (Conc 30 μM) came out at 58%.

As to `CN1CCC2(CC1)N=C(SCC(=O)Nc1ccc(Cl)nc1)C(c1ccc(Br)cc1)=N2` [Compound 8B, 2-((3-(4-bromophenyl)-8-methyl-1,4,8-triazaspiro[4.5]deca-1,3-dien-2-yl)thio)-N-(6-chloropyridin-3-yl)acetamide], the figures for the IC50 in the series on UM1 cells and with RKO cells were 0.8 µM and 5.3 µM, respectively. Further, the viability at 15 µM in the series on cells was 50%.

On to `CN1CCC2(CC1)N=C(SCC(=O)Nc1ccncc1)C(c1ccc(Br)cc1)=N2` [Compound 8D, 2-((3-(4-bromophenyl)-8-methyl-1,4,8-triazaspiro[4.5]deca-1,3-dien-2-yl)thio)-N-(pyridin-4-yl)acetamide], for which the results for the IC50 in the series on UM1 cells and in the series on RKO cells were 0.8 µM and 7.3 µM, respectively. For the same compound, the viability at 7.5 µM in the series with cells is 64%.

`CN1CCC2(CC1)N=C(SCC(=O)NC1CCCCC1)C(c1ccc(Br)cc1)=N2` [Compound 8E, 2-((3-(4-bromophenyl)-8-methyl-1,4,8-triazaspiro[4.5]deca-1,3-dien-2-yl)thio)-N-cyclohexylacetamide]: the results for the IC50 in the series with UM1 cells and in the series with RKO cells were 1.9 µM and 14.1 µM, respectively. Besides, the viability at 30 µM with cells (Conc 30 μM) is 84%.

For `CN1CCC2(CC1)N=C(SCC(=O)NC1CCCC1)C(c1ccc(Br)cc1)=N2` [Compound 8F, 2-((3-(4-bromophenyl)-8-methyl-1,4,8-triazaspiro[4.5]deca-1,3-dien-2-yl)thio)-N-cyclopentylacetamide], the 50% inhibitory concentration (IC50) with UM1 cells is 1 µM; in the series on RKO cells, 17.4 µM. Also, in the series with cells (Conc 30 μM), the viability at 30 µM is 62%.

In the case of `CN1CCC2(CC1)N=C(SCC(=O)NCc1ccccc1)C(c1ccc(Br)cc1)=N2` [Compound 8G, N-benzyl-2-((3-(4-bromophenyl)-8-methyl-1,4,8-triazaspiro[4.5]deca-1,3-dien-2-yl)thio)acetamide], the IC50 in the series with UM1 cells stood at 1.6 µM; in the series on RKO cells, 8.5 µM. The viability at 30 µM with cells (Conc 30 μM) is 40%.

Take `COc1ccc(C2=NC3(CCN(C(=O)OC(C)(C)C)CC3)N=C2SCC(=O)Nc2ccc(OC)nc2)cc1` [Compound 10, tert-Butyl 2-(4-methoxyphenyl)-3-((2-((6-methoxypyridin-3-yl)amino)-2-oxoethyl)thio)-1,4,8-triazaspiro[4.5]deca-1,3-diene-8-carboxylate]: the 50% inhibitory concentration (IC50) with UM1 cells was found to be 1.7 µM; in the series on RKO cells, 21.8 µM. For the same compound, the viability at 30 µM in the series on cells (Conc 30 μM) stood at 81%.

As for `COc1ccc(C2=NC3(CCNCC3)N=C2SCC(=O)Nc2ccc(OC)nc2)cc1` [Compound 11, 2-((3-(4-methoxyphenyl)-1,4,8-triazaspiro[4.5]deca-1,3-dien-2-yl)thio)-N-(6-methoxypyridin-3-yl)acetamide hydrochloride], the IC50 amounted to 1.3 µM in the series with UM1 cells and 26 µM in the series on RKO cells. In addition, the viability at 30 µM with cells (Conc 30 μM) is 52%.

In the case of `COc1ccc(C2=NC3(CCN(C)CC3)N=C2SCC(=O)Nc2ccc(OC)nc2)cc1` [Compound 12, 2-((3-(4-methoxyphenyl)-8-methyl-1,4,8-triazaspiro[4.5]deca-1,3-dien-2-yl)thio)-N-(6-methoxypyridin-3-yl)acetamide], the IC50 in the series on UM1 cells is 1.2 µM; in the series on RKO cells, 34 µM. Further, the viability at 30 µM with cells (Conc 30 μM) amounted to 78%.

Turning to `CC1(C)N=C(c2ccc(F)cc2)C(=O)N1CC(=O)Nc1ccc(F)c(Cl)c1` [Compound 13], the IC50 with MCR5 cells (MCR5) was determined as 335 µM; in the series on RKO cells, 25.2 µM; with UM10B cells it was 6.9 µM. Further, the “% Cell viable (24 hrs)” value with cells (Conc 30 μM) is reported as 59.4%.

`COc1ccc(NC(=O)CN2C(=O)C(c3ccc(C(C)(C)C)cc3)=NC2(C)C)cc1Cl` [Compound 15]: the IC50 in the series on MCR5 cells (MCR5, MCR5) was 37 µM; with RKO cells, 50.7 µM; in the series with UM10B cells, 17.2 µM. In the series on cells (Conc 30 μM), the viability at 30 µM was determined as 119%.

Regarding `COc1ccc(NC(=O)CN2C(=O)C(c3ccc(F)cc3)=NC2(C)C)cc1Cl` [Compound 16], the values for the IC50 with MCR5 cells (MCR5), in the series with RKO cells and in the series with UM10B cells were 1320 µM, 43.9 µM and 38 µM, respectively. Moreover, the viability at 30 µM in the series with cells (Conc 30 μM) amounted to 122%.

For `CC1(C)N=C(SCC(=O)Nc2ccc(Cl)c(Cl)c2)C(c2ccc(Cl)c(Cl)c2)=N1` [Compound 18], the IC50 in the series with MCR5 cells (MCR5, MCR5) came to 25.9 µM; in the series with RKO cells, 6.7 µM; with UM10B cells, 2.5 µM. Further, the viability at 30 µM in the series on cells (Conc 30 μM) amounted to 48%.

For `COc1cc(NC(=O)CSC2=NC3(CCN(C)CC3)N=C2c2ccc(C)cc2)ccc1Cl` [Compound 19], the IC50 in the series with MCR5 cells (MCR5, MCR5) is 4.1 µM; in the series with RKO cells, 3.1 µM; in the series with UM10B cells, 2.6 µM. The viability at 7.5 µM in the series with cells came out at 68%.

As for `COc1ccc(C2=NC3(CCN(C)CC3)N=C2SCC(=O)Nc2ccc(OC)c(Cl)c2)cc1` [Compound 20], the IC50 worked out at 2.4 µM in the series with MCR5 cells (MCR5, MCR5); 1.8 µM in the series with RKO cells; 4 µM with UM10B cells. The viability at 15 µM in the series on cells was determined as 54%.

For the compound `COc1ccc(NC(=O)CSC2=NC3(CCN(C)CC3)N=C2c2ccc(F)cc2)cc1Cl` [Compound 21], the IC50 amounted to 0.3 µM with MCR5 cells (MCR5, MCR5); 85 µM in the series on RKO cells; 4.3 µM in the series on UM10B cells. Besides, the viability at 15 µM in the series on cells was determined as 73%.

`COc1ccc(NC(=O)CSC2=NC3(CCN(C)CC3)N=C2c2ccc(C(C)(C)C)cc2)cc1Cl` [Compound 22]: the IC50 in the series with MCR5 cells (MCR5, MCR5) was 2.3 µM; with RKO cells, 0.8 µM; in the series on UM10B cells it was 0.3 µM; in the series with UMCC92 cells, 0.2 µM. Further, the viability at 7.5 µM in the series with cells came to 55%.

With `Cc1ccc(C2=NC3(CCN(C)CC3)N=C2SCC(=O)Nc2ccc3c(c2)OCCO3)cc1` [Compound 23], the IC50 is 5.4 µM in the series on MCR5 cells (MCR5, MCR5); 2.2 µM in the series with RKO cells; 5.3 µM in the series with UM10B cells. Also, the viability at 30 µM with cells (Conc 30 μM) was found to be 103%.

As for `Cc1ccc(C2=NC3(CCN(C)CC3)N=C2SCC(=O)Nc2ccc3c(c2)OCO3)cc1` [Compound 24], the IC50 in the series with MCR5 cells (MCR5, MCR5) amounted to 7.6 µM; in the series on RKO cells, 5.4 µM; with UM10B cells, 4.3 µM. The viability at 30 µM in the series with cells (Conc 30 μM) was 72%.

On to `CN1CCC2(CC1)N=C(SCC(=O)Nc1ccc(F)c(F)c1)C(c1ccc(Cl)cc1)=N2` [Compound 26], for which the IC50 amounted to 1.3 µM in the series with MCR5 cells (MCR5, MCR5); 2.6 µM with RKO cells; 1.1 µM with UM10B cells. Moreover, the viability at 30 µM with cells (Conc 30 μM) is 88%.

For `CN1CCC2(CC1)N=C(SCC(=O)Nc1ccc(F)c(F)c1)C(c1ccc(F)cc1)=N2` [Compound 27], the concentration for half-maximal inhibition (IC50) in the series with MCR5 cells (MCR5, MCR5) came out at 4.1 µM; in the series with RKO cells, 19 µM; with UM10B cells, 8.8 µM. Further, the viability at 30 µM in the series with cells (Conc 30 μM) worked out at 76%.

For `CN1CCC2(CC1)N=C(SCC(=O)Nc1ccc(F)c(F)c1)C(c1ccc(C(C)(C)C)cc1)=N2` [Compound 28], the IC50 in the series with MCR5 cells (MCR5, MCR5) came to 1.3 µM; in the series on RKO cells, 6.5 µM; in the series with UM10B cells it was 1 µM. Moreover, the viability at 15 µM with cells worked out at 15%.

For `CN1CCC2(CC1)N=C(SCC(=O)Nc1ccc(F)c(F)c1)C(c1ccc(Br)cc1)=N2` [Compound 29], the IC50 was 3.3 µM in the series on MCR5 cells (MCR5, MCR5); 1.4 µM with RKO cells; 0.7 µM in the series on UM10B cells. Further, in the series on cells (Conc 30 μM), the viability at 30 µM amounted to 89%.

With `COc1ccc(C2=NC3(CCCCC3)N=C2SCC(=O)Nc2ccc(F)c(Cl)c2)cc1` [Compound 31], the half-maximal inhibitory concentration (IC50) in the series with MCR5 cells (MCR5, MCR5) turned out to be 7.8 µM; in the series on UM10B cells, 7.7 µM. Besides, in the series on cells (Conc 30 μM), the viability at 30 µM is 99%.

As to `Cc1ccc(C2=NC3(CCCCC3)N=C2SCC(=O)Nc2ccc(F)c(Cl)c2)cc1` [Compound 32], the IC50 in the series on MCR5 cells (MCR5, MCR5) was 15 µM; with RKO cells, 8 µM; in the series with UM10B cells it was 4 µM. For the same compound, the viability at 30 µM with cells (Conc 30 μM) turned out to be 104%.
